This is an account of results in patent publication US20250296914A1, “ANTIVIRAL COMPOUNDS AND COMPOSITIONS THEREFROM” (CONSEJO SUPERIOR DE INVESTIGACIONES CIENTÍFICAS, priority 2022, published 2025).

This assay has as its system SARS-CoV-2 stock strain NL/2020. The experiment in a line: Protective effect against virus-induced cytopathic effect (crystal violet staining of Vero-E6 monolayer). It is filed as cell-based. The conditions noted are these: Vero-E6, SARS-CoV-2 MOI 0.001, 72 h; for minimal effective concentration / PC MIN (lowest protective concentration): 50 to 0.78 μM tested; for minimal effective concentration: read-out: PC MIN (lowest protective concentration); for pEC50: lowest fully protecting concentration averaged with next lower dilution, read-out: ESTIMATED EC50.

[1] abbreviates: Severe acute respiratory syndrome coronavirus 2, Vero C1008, 72 h.

pEC50: −log10 of the molar value. Like-named read-outs stand apart in the source and are kept apart here.

Regarding `CCc1cccc(-c2ccc(NC(C#N)[C@H](Cc3c[nH]c4ccccc34)NC(=O)OC(C)(C)C)c(C(=O)OC)c2)c1` (stereo partly drawn) [(Iaa), methyl 4-(((2S)-2-((tert-butoxycarbonyl)amino)-1-cyano-3-(1H-indol-3-yl)propyl)amino)-3′-ethyl-[1,1′-biphenyl]-3-carboxylate], under setting [1], the minimal effective concentration was 3.12 µM and the pEC50 – broadly, the negative decadic logarithm of the EC50, by convention in mol/L – is 5.63.
Taken in the same sequence, the figures for `COC(=O)c1cc(-c2cccc(N3CCCC3)c2)ccc1NC(C#N)[C@H](Cc1c[nH]c2ccccc12)NC(=O)OC(C)(C)C` (stereo partly drawn) [(Iab), methyl 4-(((2S)-2-((tert-butoxycarbonyl)amino)-1-cyano-3-(1H-indol-3-yl)propyl)amino)-3′-(pyrrolidin-1-yl)-[1,1′-biphenyl]-3-carboxylate] were 3.12 µM and 5.63.
In the same order, the values of `COC(=O)c1cc(-c2cccc(N(C)C)c2)ccc1NC(C#N)[C@H](Cc1c[nH]c2ccccc12)NC(=O)OC(C)(C)C` (stereo partly drawn) [(Iac), methyl 4-(((2S)-2-((tert-butoxycarbonyl)amino)-1-cyano-3-(1H-indol-3-yl)propyl)amino)-3′-(dimethylamino)-[1,1′-biphenyl]-3-carboxylate] are 3.12 µM and 5.63.
For the compound `COC(=O)c1cc(-c2cccc(OC(F)(F)F)c2)ccc1NC(C#N)[C@H](Cc1c[nH]c2ccccc12)NC(=O)OC(C)(C)C` (stereo partly drawn) [(Iad), methyl 4-(((2S)-2-((tert-butoxycarbonyl)amino)-1-cyano-3-(1H-indol-3-yl)propyl)amino)-3′-(trifluoromethoxy)-[1,1′-biphenyl]-3-carboxylate], under setting [1], the minimal effective concentration is 3.12 µM and the pEC50 was 5.63.
Turning to `COC(=O)c1cc(-c2ccc(N3CCN(C(C)C)CC3)nc2)ccc1NC(C#N)[C@H](Cc1c[nH]c2ccccc12)NC(=O)OC(C)(C)C` (stereo partly drawn) [(Iae), methyl 2-(((2S)-2-((tert-butoxycarbonyl)amino)-1-cyano-3-(1H-indol-3-yl)propyl)amino)-5-(6-(4-isopropylpiperazin-1-yl)pyridin-3-yl)benzoate], under setting [1], the minimal effective concentration is 3.12 µM and the pEC50 is 5.63.
Taken in the same sequence, the figures for `CCOc1ncc(-c2ccc(NC(C#N)[C@H](Cc3c[nH]c4ccccc34)NC(=O)OC(C)(C)C)c(C(=O)OC)c2)cn1` (stereo partly drawn) [(Iaf), methyl 2-(((2S)-2-((tert-butoxycarbonyl)amino)-1-cyano-3-(1H-indol-3-yl)propyl)amino)-5-(2-ethoxypyrimidin-5-yl)benzoate] were 3.12 µM and 5.63.
For `CCCCc1ccc(-c2ccc(NC(C#N)[C@H](Cc3c[nH]c4ccccc34)NC(=O)OC(C)(C)C)c(C(=O)OC)c2)cc1` (stereo partly drawn) [(Iag), methyl 4-(((2S)-2-((tert-butoxycarbonyl)amino)-1-cyano-3-(1H-indol-3-yl)propyl)amino)-4′-butyl-[1,1′-biphenyl]-3-carboxylate], the “PC MIN (lowest protective concentration)” value is 6.25 µM and the pEC50 is 5.33.
On to `COC(=O)c1cc(-c2cccc(Cc3ccccc3)c2)ccc1NC(C#N)[C@H](Cc1c[nH]c2ccccc12)NC(=O)OC(C)(C)C` (stereo partly drawn) [(Iah), methyl 3′-benzyl-4-(((2S)-2-((tert-butoxycarbonyl)amino)-1-cyano-3-(1H-indol-3-yl)propyl)-amino)-[1,1′-biphenyl]-3-carboxylate], for which, under setting [1], the minimal effective concentration is 6.25 µM and the pEC50 is 5.33.
Consider `CC(C)(C)OC(=O)N[C@@H](Cc1c[nH]c2ccccc12)C(C#N)Nc1ccccc1C(=O)NCc1ccccc1` (stereo partly drawn) [(Iai), 2-(((2S)-2-(tert-butoxycarbonylamino)-1-cyano-3-(1H-indol-3-yl)propyl)amino)-N-benzyl-benzamide], for which, under setting [1], the minimal effective concentration amounted to 6.25 µM and the pEC50 was 5.33.
In the same order, the values of `CC(C)(C)OC(=O)N[C@@H](Cc1c[nH]c2ccccc12)C(C#N)Nc1ccccc1Br` (stereo partly drawn) [(Iaj), (3S)-2-((2-bromophenyl)amino)-4-(1H-indol-3-yl)-3-(tert-butoxycarbonylamino) butanenitrile] are 6.25 µM and 5.33.
Consider `COC(=O)c1ccccc1NC(C#N)[C@@H](Cc1c[nH]c2ccccc12)NC(=O)OC(C)(C)C` (stereo partly drawn) [(Iak), methyl 2-(((2R)-2-((tert-butoxycarbonyl)amino)-1-cyano-3-(1H-indol-3-yl)propyl)amino)-benzoate], for which, under setting [1], the minimal effective concentration came to 12.5 µM and the pEC50 was 5.03.
Taken in the same sequence, the figures for `CC(=O)c1ccccc1NC(C#N)[C@H](Cc1c[nH]c2ccccc12)NC(=O)OC(C)(C)C` (stereo partly drawn) [(Ial), (3S)-3-(tert-butoxycarbonylamino)-2-((2-acetylphenyl)amino)-4-(1H-indol-3-yl)butanenitrile] were 12.5 µM and 5.03.
In the same order, the values of `COC(=O)c1ccc(NC(C#N)[C@H](Cc2c[nH]c3ccccc23)NC(=O)OC(C)(C)C)cc1` (stereo partly drawn) [(Iam), methyl 4-(((2S)-2-((tert-butoxycarbonyl)amino)-1-cyano-3-(1H-indol-3-yl)propyl)amino)-benzoate] are 25 µM and 4.73.
`COC(=O)c1cc(-c2ccc(C(C)(C)C)cc2)ccc1NC(C#N)[C@H](Cc1c[nH]c2ccccc12)NC(=O)OC(C)(C)C` (stereo partly drawn) [(Ij), methyl 4-(((2S)-2-((tert-butoxycarbonyl)amino)-1-cyano-3-(1H-indol-3-yl)propyl)amino)-4′-(tert-butyl)-[1,1′-biphenyl]-3-carboxylate]: under setting [1], the minimal effective concentration turned out to be 1.56 µM and the negative-log EC50 (pEC50) was 5.93.
Taken in the same sequence, the figures for `COC(=O)c1c(Br)cccc1NC(C#N)[C@H](Cc1c[nH]c2ccccc12)NC(=O)OC(C)(C)C` (stereo partly drawn) [(Ik), methyl 2-bromo-6-(((2S)-2-((tert-butoxycarbonyl)amino)-1-cyano-3-(1H-indol-3-yl)propyl)-amino)benzoate] were 1.56 µM and 5.93.
As for `CCc1ccc(-c2ccc(NC(C#N)[C@H](Cc3c[nH]c4ccccc34)NC(=O)OC(C)(C)C)c(C(=O)OC)c2)cc1` (stereo partly drawn) [(Il), methyl 4-(((2S)-2-((tert-butoxycarbonyl)amino)-1-cyano-3-(1H-indol-3-yl)propyl)amino)-4′-ethyl-[1,1′-biphenyl]-3-carboxylate], under setting [1], the minimal effective concentration stood at 1.56 µM and the pEC50 was 5.93.
As to `COC(=O)c1cc(-c2ccc(C3CC3)cc2)ccc1NC(C#N)[C@H](Cc1c[nH]c2ccccc12)NC(=O)OC(C)(C)C` (stereo partly drawn) [(Im1), methyl 4-(((2S)-2-((tert-butoxycarbonyl)amino)-1-cyano-3-(1H-indol-3-yl)propyl)amino)-4′-cyclopropyl-[1,1′-biphenyl]-3-carboxylate], the “PC MIN (lowest protective concentration)” value was 1.56 µM and the negative-log EC50 (pEC50) was 5.93.
In the same order, the values of `COC(=O)c1cc(-c2ccc(C3CC3)cc2)ccc1NC(C#N)[C@H](Cc1c[nH]c2ccccc12)NC(=O)OC(C)(C)C` (stereo partly drawn) [(Im2), methyl 4-(((2S)-2-((tert-butoxycarbonyl)amino)-1-cyano-3-(1H-indol-3-yl)propyl)amino)-4′-cyclopropyl-[1,1′-biphenyl]-3-carboxylate] are 1.56 µM and 5.93.
